Reference: patent publication US20210087195A1, “NEW CRYSTAL FORM OF ACALBRUTINIB, PREPARATION METHOD THEREFOR AND USE THEREOF” (Crystal Pharmaceutical (Suzhou) Co., Ltd., priority 2018, published 2021)
In brackets after ≈: the same amount, converted by molar mass. Entries after “also recorded” stand apart in the source; their conditions may differ. Read-outs that look alike come from different tables or passages of the source. Values belong to the molecule of their own block, whether it stands above or below them.

Assays:
Type in all cases: physicochemical
[1] = Slurry competition experiments between Form K1 and Form I in water; conditions: 5° C. and room temperature
Protocol: Approximately 30 mg of Form K1 and Form I of WO2017002095A1 were weighed and suspended into water at 5° C. and room temperature, to evaluate the stability of Form K1 and Form I of WO2017002095A1.

[2] = Compressibility (tensile strength of compressed powder); conditions: φ6 mm round tooling, compressed at 10 kN, T=2H/πDL
Protocol: Approximately 80 mg of Form K1 or Form I of WO2017002095A1 was added into the dies of φ6 mm round tooling, compressed at 10 kN manually, and then stored in a desiccator for 24 hours until complete elastic recovery. Radial crushing force (hardness, H) was tested with an intelligent tablet hardness tester. Diameter (D) and thickness (L) were tested with a caliper. Tensile strength of the powder with different hardness was calculated with the following formula: T=2H/πDL. Under a certain force, the greater the tensile strength, the better the compressibility.

[3] = Physical stability of crystalline form in water (suspension, magnetic stirring or shaking, XRPD); conditions: for Physical stability in water (crystalline form change): magnetic stirring and shaking at room temperature and 5° C., up to 7 days
Protocol: The following experiments were conducted to compare physical stability of Form K1 of the present disclosure and Form I of WO2017002095A1 in water. Approximately 10 mg of Form K1 and Form I solids were added into 1.0 mL of pure water separately to form suspensions. The suspensions were dispersed by magnetic stirring and shaking at room temperature and 5° C. to evaluate the physical stability of Form K1 and Form I of WO2017002095A1 in water.

[4] = Adhesiveness (amount sticking to the punch); conditions: φ8 mm round tooling, 10 kN, held 30 s, compression repeated twice
Protocol: Approximately 30 mg of Form K1 or Form I of WO2017002095A1 was weighed and then added into the dies of φ8 mm round tooling, compressed at 10 kN and held for 30 s. The amount of material sticking to the punch was weighed. The compression was repeated twice and the cumulative amount and average amount of solids sticking to the punch during the compression were recorded.

[5] = Solubility in buffers of pH 7.0, 7.4 and 8.7 (HPLC); conditions: for solubility at 2 h: phosphate buffer, thermodynamic from solid, read-out: Solubility after equilibration for 2 hours
Protocol: A sufficient amount of Form K1 or Form I of WO2017002095A1 was suspended in buffers of pH 7.0, 7.4 and 8.7. After being stirred and equilibrated for 2 hours, the suspension was centrifuged to obtain supernatant. Concentration (mg/mL) of the supernatant was analyzed by HPLC.

[6] = Solubility in organic solvents (incremental solvent addition)
Protocol: A certain amount of Form K1 or Form I of WO2017002095A1 was added into a glass vial. Organic solvent was added into the glass vial in increments of 100 μL. Solid was quickly dispersed in solvent through oscillation or sonication, and the process was monitored to see whether the solid was completely dissolved. No more solvent was added when solids were completely dissolved, or a total volume of solvent reached 1.5 mL. According to mass of sample (m) and volume of solvent added, solubility (S) of different crystalline forms in organic solvent was calculated.

[7] = Physical stability under manual grinding (XRPD); conditions: ground manually in a mortar for 5 minutes
Protocol: Form K1 was ground manually in a mortar for 5 minutes.

[8] = Stability of drug substance at long-term and accelerated conditions (XRPD); conditions: for Solid form after storage: one month
Protocol: Four samples, 10 mg each of Form K1 of the present disclosure was stored in HPLC glass vials. The HPLC glass vials were capped in sealed conditions, or covered with Parafilm with 3-5 pinholes in open conditions. After one month, solid forms were checked by XRPD.

[9] = Form change during capsule formulation process (XRPD); conditions: before and after capsule preparation
Protocol: Form K1 capsules were prepared according to the formulation listed in Table 11 and the preparation process described in Table 12. XRPD was performed to test the form change before and after capsule preparation.

[10] = listed as Form I of WO2017002095A1

Form conversion in slurry competition [1]: convert into Form K1
Tensile strength [2, 10]: Unable to be compressed into a tablet
Average amount sticking to the punch [4, 10]: 45 µg
Cumulative amount sticking to the punch [4, 10]: 90 µg
Solubility after equilibration for 2 hours ([5]; pH = 7.0 phosphate aqueous solution): 64 µg/mL
Solubility after equilibration for 2 hours ([5]; pH = 7.4 phosphate aqueous solution): 55 µg/mL
Solubility after equilibration for 2 hours ([5]; pH = 8.7 phosphate aqueous solution): 56 µg/mL
Solubility ([6]; 1,4-Dioxane): S < 13.1 mg/mL
Solubility ([6]; 2-methyltetrahydrofuran): S < 8.9 mg/mL
Solubility ([6]; Acetone): S < 6.5 mg/mL
Solubility ([6]; Acetonitrile): S < 7.8 mg/mL
Solubility ([6]; Ethanol): S < 6.4 mg/mL
Solubility ([6]; Ethyl acetate): S < 7.9 mg/mL
Solubility ([6]; Isopropanol): S < 6.5 mg/mL
Solubility ([6]; Methanol): S < 27.0 mg/mL
Solubility ([6]; Methyl ethyl ketone): S < 7.6 mg/mL
Solubility ([6]; Methyl isobutyl ketone): S < 7.7 mg/mL
Solubility ([6]; Tetrahydrofuran): S < 16.1 mg/mL
Solubility ([6]; n-Butanol): S < 8.7 mg/mL
Solubility ([6]; n-Propanol): S < 7.5 mg/mL
Compound: CC#CC(=O)N1CCC[C@H]1c1nc(-c2ccc(C(=O)Nc3ccccn3)cc2)c2c(N)nccn12 [Form I, (S)-4-(8-amino-3-(1-(but-2-ynoyl)pyrrolidin-2-yl)imidazo[1,5-a]pyrazin-1-yl)-N-(pyridin-2-yl)benzamide, reference compound]
Physical stability in water (crystalline form change) [3]: crystallinity decrease and almost converts into amorphous
Solid form changes in the suspension ([3]; water, magnetic stirring, room temperature, 4 hours): crystallinity decrease and almost converts into amorphous

Tensile strength [2]: 1.31 MPa
Stability of drug substance (time kept stable) ([8]; 25° C./60% RH and 40° C./75% RH, sealed and open): stable for at least one month
Solid form after storage ([8]; 25° C./60% RH, open): Form K1
Solid form after storage ([8]; 25° C./60% RH, sealed): Form K1
Solid form after storage ([8]; 40° C./75% RH, open): Form K1
Solid form after storage ([8]; 40° C./75% RH, sealed): Form K1
Average amount sticking to the punch [4]: 30 µg
Cumulative amount sticking to the punch [4]: 60 µg
Form change during capsule formulation process [9]: doesn't change
solubility at 2 h ([5]; pH 7, aqueous buffer, pH = 7.0 phosphate aqueous solution): 79 µg/mL (≈ 170 µM)
solubility at 2 h ([5]; pH 7.4, aqueous buffer, pH = 7.4 phosphate aqueous solution): 69 µg/mL (≈ 148 µM)
solubility at 2 h ([5]; pH 8.7, aqueous buffer, pH = 8.7 phosphate aqueous solution): 66 µg/mL (≈ 142 µM)
Solubility ([6]; 1,4-Dioxane): S > 102.0 mg/mL
Solubility ([6]; 2-methyltetrahydrofuran, organic solvent or mixture, thermodynamic from solid, 2-methyltetrahydrofuran, read-out: Solubility): > 17600 µg/mL
Solubility ([6]; Acetone): S > 137.0 mg/mL
Solubility ([6]; Acetonitrile): S > 36.3 mg/mL
Solubility ([6]; Ethanol): S > 120.0 mg/mL
Solubility ([6]; Isopropanol): S > 48.0 mg/mL
Solubility ([6]; Methanol): S > 89.0 mg/mL
Solubility ([6]; Methyl ethyl ketone): S > 114.0 mg/mL
Solubility ([6]; Tetrahydrofuran): S > 142.0 mg/mL
Solubility ([6]; ethyl acetate, organic solvent or mixture, thermodynamic from solid, Ethyl acetate, read-out: Solubility): > 13200 µg/mL
Solubility ([6]; methyl isobutyl ketone, organic solvent or mixture, thermodynamic from solid, Methyl isobutyl ketone, read-out: Solubility): > 10000 µg/mL
Solubility ([6]; n-Butanol): S > 30.3 mg/mL
Solubility ([6]; n-Propanol): S > 58.0 mg/mL
Compound: CC#CC(=O)N1CCC[C@H]1c1nc(-c2ccc(C(=O)Nc3ccccn3)cc2)c2c(N)nccn12 [Form K1, (S)-4-(8-amino-3-(1-(but-2-ynoyl)pyrrolidin-2-yl)imidazo[1,5-a]pyrazin-1-yl)-N-(pyridin-2-yl)benzamide]
Physical stability under grinding (form change) [7]: no obvious form change or crystallinity decrease
Physical stability in water (crystalline form change) [3]: no crystalline form change; also recorded: doesn't change
